Laboratory results as given in patent US20260234137A1, “BICYCLIC ENHANCERS OF THE PARTICULATE GUANYLYL CYCLASE RECEPTOR A” (University of Florida Research Foundation, Incorporated, priority 2022, published 2026).
Entries after “also recorded” stand apart in the source; their conditions may differ. Like-named read-outs stand apart in the source and are kept apart here.

Key:
human GC-A = target: T1, human GC-A (Homo sapiens, UniProt P16066); test: cGMP potentiation (HTRF) in human GC-A overexpressing HEK293 cells with EC20 ANP; type: cell-based; conditions: for IC50: Table 3, additional compounds, modulation of pGC-A; for Emax: HEK293
T1 construct: host or cells: HEK293
T1 sequence (P16066 33-1061): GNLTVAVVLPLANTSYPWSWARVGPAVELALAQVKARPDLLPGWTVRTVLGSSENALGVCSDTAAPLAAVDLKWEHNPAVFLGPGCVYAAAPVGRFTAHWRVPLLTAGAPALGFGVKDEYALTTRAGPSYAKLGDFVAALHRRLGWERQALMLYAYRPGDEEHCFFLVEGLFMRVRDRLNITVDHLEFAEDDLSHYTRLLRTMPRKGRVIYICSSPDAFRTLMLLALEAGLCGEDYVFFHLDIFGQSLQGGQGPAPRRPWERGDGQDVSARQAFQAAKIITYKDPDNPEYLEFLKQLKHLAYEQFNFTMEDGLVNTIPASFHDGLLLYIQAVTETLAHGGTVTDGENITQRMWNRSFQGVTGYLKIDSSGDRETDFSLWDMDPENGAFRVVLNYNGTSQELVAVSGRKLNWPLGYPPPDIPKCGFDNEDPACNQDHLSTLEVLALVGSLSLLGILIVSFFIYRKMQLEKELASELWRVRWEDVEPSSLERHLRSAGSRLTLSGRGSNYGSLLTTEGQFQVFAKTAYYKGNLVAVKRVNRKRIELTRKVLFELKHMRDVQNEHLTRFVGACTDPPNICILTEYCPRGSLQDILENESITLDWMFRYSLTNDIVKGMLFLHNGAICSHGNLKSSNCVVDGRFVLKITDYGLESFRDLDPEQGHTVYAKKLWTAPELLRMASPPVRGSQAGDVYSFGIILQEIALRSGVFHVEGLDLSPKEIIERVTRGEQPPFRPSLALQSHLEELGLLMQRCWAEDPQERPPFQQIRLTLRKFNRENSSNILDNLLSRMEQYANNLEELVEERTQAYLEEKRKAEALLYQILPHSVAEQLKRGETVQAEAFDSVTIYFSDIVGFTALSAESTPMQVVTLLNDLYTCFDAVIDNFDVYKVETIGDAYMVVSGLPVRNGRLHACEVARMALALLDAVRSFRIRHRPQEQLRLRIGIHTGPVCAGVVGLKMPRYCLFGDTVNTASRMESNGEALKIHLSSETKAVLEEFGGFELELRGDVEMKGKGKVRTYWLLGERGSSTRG
T1 sequence (P01160 124-151 partner limits assumed): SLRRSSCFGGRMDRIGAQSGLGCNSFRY
Protocol: Test compounds were evaluated for potentiation of cGMP in human GC-A overexpressing HEK293 cells (Cardiorenal Research Laboratory, Mayo Clinic). Test compounds at 10 mM DMSO stock concentration were dispensed into 384 well small volume white plates using Tecan D300e digital dispenser starting at 5 μM concentration and diluted 2-fold for 10-point concentration response. Wells were backfilled with DMSO such that the final concentration of DMSO in all wells was maintained at 0.3% DMSO. Atrial natriuretic peptide (ANP, Phoenix Pharmaceuticals) peptide ANP was prepared as working stock aliquots at 5 μM in phosphate-buffered solution (PBS) with 0.1% bovine serum albumin (BSA) and diluted to […] in buffer+Tween20 at 0.3% and added to plates to a final concentration of 20 pM (EC20). GC-A cells in suspension […] in OptiMem media (11058-021) supplemented with 2% fetal bovine serum were plated at 1×10^6 cells/mL and assay plates were spun at 1000 rpm for 30 sec and incubated at RT for 30 min. GC-A-mediated activation of cGMP production was measured using cGMP CisBio detection homogenous time-resolved florescence (HTRF) competition assay using labeled-cGMP in human GC-A-overexpressing HEK293 cells. 5 μL of d-2 acceptor was dispensed into each well followed by addition of 5 μL of Anti-cGMP Eu-Cryptate antibody donor and plates were spun at 1000 rpm for 30 sec and incubated in the dark at RT for 1 hr. HTRF florescence was read on the ClarioStar microplate reader (BMG). A 100% response was determined from wells in the absence of compound and presence of saturating concentration of ANP (10 nM), and 0% response was determined from wells containing an EC20 concentration of ANP determined for each new lot of ANP. EC20 values of ANP were maintained in the range of 15-30 pM across all assay plates tested.
Test compounds were tested in the absence of ANP to determine agonist activity.

[1] = cited from earlier work
hERG channel = hERG channel (Homo sapiens, UniProt Q12809); test: hERG binding / selectivity over hERG
hERG channel, sequence (Q12809 whole entry): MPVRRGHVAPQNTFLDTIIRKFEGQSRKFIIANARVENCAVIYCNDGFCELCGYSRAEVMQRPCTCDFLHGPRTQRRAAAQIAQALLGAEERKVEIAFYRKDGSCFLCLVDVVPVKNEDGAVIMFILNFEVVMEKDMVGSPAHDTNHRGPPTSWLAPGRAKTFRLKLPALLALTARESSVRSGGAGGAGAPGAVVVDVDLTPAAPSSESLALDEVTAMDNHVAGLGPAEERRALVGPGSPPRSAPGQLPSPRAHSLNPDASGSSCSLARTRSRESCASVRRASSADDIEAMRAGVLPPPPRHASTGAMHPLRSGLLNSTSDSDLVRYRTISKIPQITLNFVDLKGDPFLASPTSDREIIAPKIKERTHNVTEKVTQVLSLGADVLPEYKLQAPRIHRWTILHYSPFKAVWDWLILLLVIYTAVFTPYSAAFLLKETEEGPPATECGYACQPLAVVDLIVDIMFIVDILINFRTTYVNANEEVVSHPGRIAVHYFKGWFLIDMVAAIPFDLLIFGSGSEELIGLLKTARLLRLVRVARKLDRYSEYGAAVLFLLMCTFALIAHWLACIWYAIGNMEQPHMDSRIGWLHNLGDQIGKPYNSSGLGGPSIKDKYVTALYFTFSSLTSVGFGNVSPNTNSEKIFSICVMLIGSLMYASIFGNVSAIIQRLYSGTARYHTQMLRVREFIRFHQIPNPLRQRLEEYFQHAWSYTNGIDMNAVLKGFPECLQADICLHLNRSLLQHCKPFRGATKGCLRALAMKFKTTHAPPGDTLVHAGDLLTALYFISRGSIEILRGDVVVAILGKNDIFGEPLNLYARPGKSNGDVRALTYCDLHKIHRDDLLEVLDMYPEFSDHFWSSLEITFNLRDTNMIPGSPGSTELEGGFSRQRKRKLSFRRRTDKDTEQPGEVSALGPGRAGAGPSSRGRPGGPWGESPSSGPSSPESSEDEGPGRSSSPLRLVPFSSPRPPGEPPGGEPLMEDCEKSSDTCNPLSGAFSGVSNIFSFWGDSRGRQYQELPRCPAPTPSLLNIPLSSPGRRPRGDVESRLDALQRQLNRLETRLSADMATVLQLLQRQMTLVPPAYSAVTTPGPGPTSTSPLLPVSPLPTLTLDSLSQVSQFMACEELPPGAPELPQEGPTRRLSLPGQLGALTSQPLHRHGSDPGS

[2] = Table 1, 100% = saturating ANP (10 nM), 0% = EC20 ANP, read-out: Emax (%)
[3] = Table 1, Formula (I-a), cGMP potentiation, ANP at EC20, read-out: EC50

SMILES: CCOc1cc(F)c2nc(NC(=O)C3CCCN(CCN(C)C)C3)sc2c1 (centres unmarked) [JUF-S3-010]
- IC50 (human GC-A): > 5 µM

SMILES: CN(C)CCN1CCCC(C(=O)Nc2nc3c(F)cc(F)cc3s2)C1 (centres unmarked) [MCUF-651]
- in vivo activity (in words) [1]: active in vivo
- oral bioavailability (in words) ([1]; in vivo, po): orally bioavailable
- Emax (human GC-A; control on each assay plate, read-out: Emax range of control compound): 75 to 85%

SMILES: O=C(Nc1nc2c(F)cc(F)cc2s1)C1CCCN(CCn2cccn2)C1 (centres unmarked) [JUF-S4-012]
- GC-A activity (in words) (human GC-A): tolerated
- LLE (human GC-A; Table 1): 2.91

SMILES: Cc1cc(F)c2nc(NC(=O)C3CCCN(CCN(C)C)C3)sc2c1 (centres unmarked) [JUF-S3-005]
- IC50 (human GC-A): 0.9 µM

SMILES: Cn1cc(N2CCCC(C(=O)Nc3nc4c(F)cc(F)cc4s3)C2)cn1 (centres unmarked) [JUF-S4-023]
- Emax (human GC-A; [2]): 81 to 86%
- EC50 (human GC-A; [3]): 2100 to 4900 nM

SMILES: CN(C)CCN1CCCC(C(=O)Nc2nc3c(F)cc(F)cc3s2)C1 (centres unmarked) [MCUF 651, reference compound]
- Emax values of internal control (human GC-A; FIG. 2, titrated on each 384-test plate): 80-100 % response
- EC50 (human GC-A; FIG. 2, titrated on each 384-test plate, read-out: Acceptable EC50 values of internal control): 200 to 600 nM

SMILES: CN1CCC(N2CCCC(C(=O)Nc3nc4c(F)cc(F)cc4s3)C2)C1 (centres unmarked) [JUF-S4-015]
- Emax (human GC-A; [2]): 89%
- LLE (human GC-A; Table 1): 4.09- 4.39
- EC50 (human GC-A; [3]): 130 nM

SMILES: O=C(Nc1nc2c(F)cc(F)cc2s1)C1CCCN(CCN2CCCC2=O)C1 (centres unmarked) [JUF-S4-014]
- GC-A activity (in words) (human GC-A): loss of activity
- Emax (human GC-A; [2]): 105%

SMILES: COc1cc(F)c2nc(NC(=O)C3CCCN(CCN(C)C)C3)sc2c1 (centres unmarked) [JUF-S3-006]
- Emax (human GC-A; Table 3, 100% = saturating ANP (10 nM), 0% = EC20 ANP, read-out: Emax (%)): 112%
- IC50 (human GC-A): 6.7 µM

SMILES: CN1CCCC(N2CCCC(C(=O)Nc3nc4c(F)cc(F)cc4s3)C2)C1 (centres unmarked) [JUF-S4-016]
- Emax (human GC-A; [2]): 97%

SMILES: CN1CC(N2CCCC(C(=O)Nc3nc4c(F)cc(F)cc4s3)C2)C1 (centres unmarked) [JUF-S4-029]
- GC-A activity (in words) (human GC-A): high potency in activation of GC-A
- LLE (human GC-A; Table 1): 5.11
- potency in activation of GC-A relative to MCUF-651 (human GC-A; compared to MCUF-651): ~ 10 fold
- hERG binding (in words) (hERG channel): did not eliminate hERG binding
- toxicity from binding at hERG channel and other off-target toxicity (in words) (hERG channel): reduced toxicity
- selectivity ratio (hERG channel; human, compared to MCUF-651, read-out: selectivity for GC-A vs hERG relative to MCUF-651): 50 to 100

SMILES: O=C(Nc1nc2c(F)cc(F)cc2s1)C1CNCCO1 (centres unmarked) [JUF-S11-003A]
- IC50 (human GC-A): > 5 µM

SMILES: CN(C)CCN1CC(C(=O)Nc2nc3c(F)cc(F)cc3s2)CCC1=O (centres unmarked) [JUF-S11-001]
- EC50 (human GC-A; Table 2, Formula (I-b), cGMP potentiation, ANP at EC20, read-out: EC50): > 5000 nM

SMILES: O=C(Nc1nc2c(F)cc(F)cc2s1)C1CCCN(c2cccnc2)C1 (centres unmarked) [JUF-S4-025]
- Emax (human GC-A; [2]): 104 to 135%
- EC50 (human GC-A; [3]): 2500 to 7400 nM

SMILES: CN(C)c1ccc(N2CCCC(C(=O)Nc3nc4c(F)cc(F)cc4s3)C2)cc1 (centres unmarked) [JUF-S4-009]
- GC-A activity (in words) (human GC-A): active

SMILES: CN(C)CCN1CCOC(C(=O)Nc2nc3c(F)cc(F)cc3s2)C1 (centres unmarked) [JUF-S11-003]
- IC50 (human GC-A): > 5 µM

SMILES: O=C(Nc1nc2c(F)cc(F)cc2s1)C1CNCCN1C(=O)OCc1ccccc1 (centres unmarked) [JUF-S11-002A]
- IC50 (human GC-A): > 5 µM

SMILES: O=C(Nc1nc2c(F)cc(F)cc2s1)C1CCCN(c2ccncc2)C1 (centres unmarked) [JUF-S4-026]
- GC-A activity (in words) (human GC-A): active; also recorded: more active than MCUF-651
- LLE (human GC-A; Table 1): 3.28- 3.72
- hERG binding (in words) (hERG channel): did not result in selectivity over hERG binding

SMILES: O=C(Nc1nc2c(F)cc(F)cc2s1)C1CCCN(C2CNC2)C1 (centres unmarked) [JUF-S4-029A]
- Emax (human GC-A; [2]): 84 to 89%
- EC50 (human GC-A; [3]): 80 to 200 nM

SMILES: CN(C)CCN1CCCC(C(=O)Nc2nc3c(F)cc(C(F)(F)F)cc3s2)C1 (centres unmarked) [JUF-S3-004]
- IC50 (human GC-A): > 5 µM
